How the values were obtained:
Experiment in all cases: Bliss excess, mean over the matrix (fraction); higher = more synergy
[1] = system: MEG-01 (Chronic Myelogenous Leukemia)
Summary of the method: (§1)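 Cell lines grown in DMEM/F12 or RPMI with 10% FBS were plated in 1536-well plates and held 24 hours at 37°C, 5% CO2 before 72 hours of exposure to two-drug dose matrices, with DMSO typically at 0.2%. CellTiter-Glo 2.0 luminescence gave viability, which was converted to inhibition. Vehicle wells were set to 0 and blank wells to 1. Combination Emax is the second-highest inhibition in the matrix, and Bliss excess is the observed combination effect minus the expected EA + EB − EA·EB, where EA and EB are the single-agent effects.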

[2] = system: KG-1 (Acute Myeloid Leukemia)
Summary of the method: as §1

[3] = system: SNG-M (Endometrial Carcinoma)
Summary of the method: as §1

[4] = system: PA-TU-8902 (Pancreatic Carcinoma)
Summary of the method: as §1

HCC38 (Breast Carcinoma) = system: HCC38 (Breast Carcinoma)
Summary of the method: as §1

[5] = system: ETK-1 (Biliary Tract Carcinoma)
Summary of the method: as §1

[6] = system: NOMO-1 (Acute Myeloid Leukemia)
Summary of the method: as §1

[7] = system: MES-SA (Other Solid Carcinomas)
Summary of the method: as §1

[8] = system: SK-LMS-1 (Other Solid Carcinomas)
Summary of the method: as §1

[9] = system: EFM-192A (Breast Carcinoma)
Summary of the method: as §1

[10] = system: NCI-H1688 (Small Cell Lung Carcinoma)
Summary of the method: as §1

[11] = system: HOP-92 (Non-Small Cell Lung Carcinoma)
Summary of the method: as §1

MSTO-211H (Mesothelioma) = system: MSTO-211H (Mesothelioma)
Summary of the method: as §1

MCF7 (Breast Carcinoma) = system: MCF7 (Breast Carcinoma)
Summary of the method: as §1

[12] = system: JHH-6 (Hepatocellular Carcinoma)
Summary of the method: as §1

SK-MEL-1 (Melanoma) = system: SK-MEL-1 (Melanoma)
Summary of the method: as §1

HuO9 (Osteosarcoma) = system: HuO9 (Osteosarcoma)
Summary of the method: as §1

CS1 (Chondrosarcoma) = system: CS1 (Chondrosarcoma)
Summary of the method: as §1

[13] = system: D-283MED (Other Solid Carcinomas)
Summary of the method: as §1

Row | SMILES | Bliss excess [1] | Bliss excess [2] | Bliss excess [3] | Bliss excess [4] | Bliss excess (HCC38 (Breast Carcinoma)) | Bliss excess [5] | Bliss excess [6] | Bliss excess [7] | Bliss excess [8] | Bliss excess [9] | Bliss excess [10] | Bliss excess [11] | Bliss excess (MSTO-211H (Mesothelioma)) | Bliss excess (MCF7 (Breast Carcinoma)) | Bliss excess [12] | Bliss excess (SK-MEL-1 (Melanoma)) | Bliss excess (HuO9 (Osteosarcoma)) | Bliss excess (CS1 (Chondrosarcoma)) | Bliss excess [13]
1 | CC(=O)c1c(C)c2cnc(Nc3ccc(N4CCNCC4)cn3)nc2n(C2CCCC2)c1=O [Palbociclib] + CC1(C)CCC(CN2CCN(c3ccc(C(=O)NS(=O)(=O)c4ccc(NCC5CCOCC5)c([N+](=O)[O-])c4)c(Oc4cnc5[nH]ccc5c4)c3)CC2)=C(c2ccc(Cl)cc2)C1 [Venetoclax] (first compound max 10 µM, 7x7, partner max 1 µM) | -0.0096 | 0.0888 | -0.0501 | -0.029 | -0.0437 | -0.0207 | -0.0032 | 0.0594 | -0.0316 | -0.0115 | -0.0505 | -0.0166 | -0.0922 | -0.0334 | -0.0461 | -0.0353 | 0.0056 | -0.0457 | 0.0132
2 | NC1(C(=O)N[C@@H](CCO)c2ccc(Cl)cc2)CCN(c2ncnc3[nH]ccc23)CC1 [Capivasertib] + CCN(CCO)CCCOc1ccc2c(Nc3cc(CC(=O)Nc4cccc(F)c4)[nH]n3)ncnc2c1 [AZD2811] (first compound max 10 µM, 7x7, partner max 1 µM) | -0.0484 | -0.0204 | -0.012 | -0.0381 | 0.0054 | -0.012 | -0.0085 | 0.0165 | -0.0055 | -0.0053 | -0.0412 | -0.0285 | -0.0073 | 0.0943 | -0.0301 | 0.0563 | 0.0135 | -0.0211 | 0.0666
3 | CS(=O)(=O)CCNCc1ccc(-c2ccc3ncnc(Nc4ccc(OCc5cccc(F)c5)c(Cl)c4)c3c2)o1 [Lapatinib] + NC1(c2ccc(-c3nc4ccn5c(=O)[nH]nc5c4cc3-c3ccccc3)cc2)CCC1 [MK-2206] (first compound max 10 µM, 7x7, partner max 10 µM) | 0.0128 |  | 0.0254 | -0.0237 | 0.037 | -0.0441 | 0.0427 |  | 0.0031 |  | -0.0202 | 0.0328 | -0.0466 | -0.0702 |  | -0.0408 | 0.0257 | -0.0142 | 0.0164
4 | C=CCn1c(=O)c2cnc(Nc3ccc(N4CCN(C)CC4)cc3)nc2n1-c1cccc(C(C)(C)O)n1 [AZD1775] + C1CN(CCC1(C(=O)N[C@@H](CCO)C2=CC=C(C=C2)Cl)N)C3=NC=NC4=C3C=CN4 [Capivasertib] (first compound max 3 µM, partner max 3 µM) |  | 0.0152 | -0.0575 | -0.0609 | -0.105 | -0.107 | 0.0076 |  | -0.087 | -0.0004 | -0.0409 | 0.0152 | -0.0797 | 0.0075 | -0.0294 | -0.059 | -0.0495 | -0.0394 | -0.0189
5 | NC1(C(=O)N[C@@H](CCO)c2ccc(Cl)cc2)CCN(c2ncnc3[nH]ccc23)CC1 [Capivasertib] + CC(=O)c1c(C)c2cnc(Nc3ccc(N4CCNCC4)cn3)nc2n(C2CCCC2)c1=O [Palbociclib] (first compound max 10 µM, 7x7, partner max 10 µM) | -0.0355 | -0.0421 | -0.0601 | -0.0606 | -0.023 | -0.0711 | 0.0378 | -0.0017 | 0.0514 | -0.0334 | 0.017 | 0.0322 | -0.0547 | 0.049 | -0.0503 | -0.0307 | -0.0311 | 0.016 | -0.0227
6 | CS(=O)(=O)CCNCc1ccc(-c2ccc3ncnc(Nc4ccc(OCc5cccc(F)c5)c(Cl)c4)c3c2)o1 [Lapatinib] + Cn1cnc2c(F)c(Nc3ccc(Br)cc3Cl)c(C(=O)NOCCO)cc21 [Selumetinib] (first compound max 10 µM, 7x7, partner max 10 µM) | -0.0206 |  | -0.071 |  | -0.0168 |  | -0.0346 |  | 0.0047 |  |  |  | -0.0401 |  |  | -0.0654 |  | -0.0337 | 0.0163
7 | Cc1nc(Nc2ncc(C(=O)Nc3c(C)cccc3Cl)s2)cc(N2CCN(CCO)CC2)n1 [Dasatinib] + CC(=O)Nc1cccc(-n2c(=O)n(C3CC3)c(=O)c3c(Nc4ccc(I)cc4F)n(C)c(=O)c(C)c32)c1 [Trametinib] (first compound max 2 µM, 7x7, partner max 1 µM) | 0.0019 | 0.0659 | -0.0097 | 0.0404 | -0.0277 | 0.0226 | -0.126 | -0.0311 | -0.0457 | -0.0545 | -0.0122 | 0.113 | -0.001 | -0.0601 | 0.0847 | -0.0852 | 0.0175 | -0.022 | -0.0475
8 | C[C@@H](c1ccc2nccn2c1)n1nnc2ncc(-c3cnn(C)c3)nc21 [Savolitinib] + Cc1c2c(nn1C)CSCc1cc(n(C)n1)CSc1cc(c3ccccc3c1)OCCCc1c(C(=O)O)n(C)c3c-2c(Cl)ccc13 [AZD5991] (first compound max 1 µM, 7x7, partner max 1 µM) | -0.0308 | -0.0383 | 0.0124 | -0.0699 | -0.0279 | -0.0544 | 0.0497 | -0.0465 | 0.0027 | -0.0499 | 0.0064 | -0.0338 | -0.0337 | -0.0242 | -0.0727 | -0.0235 | -0.0416 | -0.031 | 0.0649

— the supplement of paper PMC11061612
